# Reference: US20130123253A1, “MODULATORS OF CENTRAL NERVOUS SYSTEM NEUROTRANSMITTERS” (HUMAN BIOMOLECULAR RESEARCH INSTITUTE, priority 2004, published 2013)
# Read-outs that look alike come from different tables or passages of the source.
# How the values were obtained:
# mice = assay: Morris water maze test; type: in vivo, mouse; conditions: 3 mg/kg, compared to control mice
# Experimental: Compounds 19 and 115 were tested in a Morris water maze test. The escape latency (time to climb onto a hidden platform) for each mouse was recorded as a memory test. […] Compared to a group of control mice, compound 19 and 115 caused a 30% improvement in memory at 3 mg/kg. […] This is not completely unexpected as SSRIs often require repeated dosing to see a large and significant effect. […] Multiple dosing likely will increase the efficacy of the compounds tested.
# human PDE4B3 = target: T1, human PDE4B3 (Homo sapiens, UniProt Q07343); assay: Inhibition of cAMP hydrolysis by recombinant human PDE4B3; type: biochemical; conditions: Example 29
# T1 construct: made in house
# T1 sequence (Q07343 1-721 isoform Q07343-3): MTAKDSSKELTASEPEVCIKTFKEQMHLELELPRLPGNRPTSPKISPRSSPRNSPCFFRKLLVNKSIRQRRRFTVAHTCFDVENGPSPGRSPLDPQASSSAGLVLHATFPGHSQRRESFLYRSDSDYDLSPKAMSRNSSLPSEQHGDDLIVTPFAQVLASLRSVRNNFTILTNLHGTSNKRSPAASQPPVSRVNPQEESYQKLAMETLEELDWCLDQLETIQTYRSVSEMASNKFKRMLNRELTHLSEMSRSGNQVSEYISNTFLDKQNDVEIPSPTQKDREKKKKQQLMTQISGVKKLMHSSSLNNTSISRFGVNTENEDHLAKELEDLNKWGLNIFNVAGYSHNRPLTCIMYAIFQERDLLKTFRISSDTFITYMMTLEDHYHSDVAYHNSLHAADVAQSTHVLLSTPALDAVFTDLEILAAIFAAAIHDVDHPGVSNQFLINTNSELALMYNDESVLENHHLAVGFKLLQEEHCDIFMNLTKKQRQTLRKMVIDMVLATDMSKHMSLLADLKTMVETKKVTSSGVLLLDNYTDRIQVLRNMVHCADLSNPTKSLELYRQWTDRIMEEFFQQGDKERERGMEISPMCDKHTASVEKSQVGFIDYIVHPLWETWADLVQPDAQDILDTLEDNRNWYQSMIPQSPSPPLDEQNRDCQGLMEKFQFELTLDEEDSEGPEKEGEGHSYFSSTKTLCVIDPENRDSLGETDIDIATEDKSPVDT
# Experimental: (§1) PDE4 enzyme assays were carried out as described previously. Studies with recombinant PDE4 enzymes were carried out in the laboratory of Professor Marco Conti (Stanford University, Palo Alto, Calif.).
# [1] = Mouse liver microsome stability assay; type: in vitro ADME
# Experimental: A typical assay mixture contained either mouse or rat liver microsomes (0.5 mg of protein), […] potassium phosphate buffer (pH 7.4), 40 μM test compounds, 0.5 mM NADP+, 0.5 mM glucose-6-phosphate, 5 IU/mL glucose-6-phosphate dehydrogenase, 1 mg/mL diethylenetriaminepentaacetic acid (DETAPAC) and 5 mM MgCl2 in a final incubation volume of 0.1 mL. After 0, 10, 25, 40 and […], the incubations were stopped by the addition of 1 ml CH2Cl2/2-propanol (3:1 v:v). The mixture was centrifuged at 12,000×g for 1 min, and the organic layer was separated from the aqueous fraction. The organic fraction was evaporated with a stream of argon and the residue was taken up in methanol (200 μL) and injected into the HPLC system described above.
# (§2) Microsomal incubations (final volume 0.25 mL) with the SSRIs, dual PDE4 inhibitor/SSRIs or PDE4 inhibitor was done with an HPLC assay as described above. Diluted stocks of either mouse, human or rat liver microsomes (0.5 mg of protein), […] potassium phosphate buffer (pH 7.4), 0.5 mM NADI)^+, 0.5 mM glucose-6-phosphate, 5 IU/mL glucose-6-phosphate dehydrogenase, 0.6 mM DETAPAC, and 3 mM MgC12 were combined and placed on ice. For a metabolic stability assay, either vehicle or 40 μM test compound was added and the incubation was initiated at 37° C. with constant shaking. After 0, 10, 25, 40 and 60 min, the incubations were stopped by the addition of 1 mL CH2Cl2/2-propanol (3:1, v:v). After thorough mixing, the organic layer was separated from the aqueous portion by centrifugation at 12,000×g. The organic material was evaporated with a stream of argon. The residue was dissolved in methanol (200 μL) and the sample was analyzed by HPLC.
# human PDE4D3 = target: T2, human PDE4D3 (Homo sapiens, UniProt Q08499); assay: Inhibition of cAMP hydrolysis by recombinant human PDE4D3; type: biochemical
# T2 construct: made in house; host or cells: Cos 7 cells (construct and cells a gift from Dr. Conti, Stanford)
# T2 sequence (Q08499 1-673 isoform Q08499-2): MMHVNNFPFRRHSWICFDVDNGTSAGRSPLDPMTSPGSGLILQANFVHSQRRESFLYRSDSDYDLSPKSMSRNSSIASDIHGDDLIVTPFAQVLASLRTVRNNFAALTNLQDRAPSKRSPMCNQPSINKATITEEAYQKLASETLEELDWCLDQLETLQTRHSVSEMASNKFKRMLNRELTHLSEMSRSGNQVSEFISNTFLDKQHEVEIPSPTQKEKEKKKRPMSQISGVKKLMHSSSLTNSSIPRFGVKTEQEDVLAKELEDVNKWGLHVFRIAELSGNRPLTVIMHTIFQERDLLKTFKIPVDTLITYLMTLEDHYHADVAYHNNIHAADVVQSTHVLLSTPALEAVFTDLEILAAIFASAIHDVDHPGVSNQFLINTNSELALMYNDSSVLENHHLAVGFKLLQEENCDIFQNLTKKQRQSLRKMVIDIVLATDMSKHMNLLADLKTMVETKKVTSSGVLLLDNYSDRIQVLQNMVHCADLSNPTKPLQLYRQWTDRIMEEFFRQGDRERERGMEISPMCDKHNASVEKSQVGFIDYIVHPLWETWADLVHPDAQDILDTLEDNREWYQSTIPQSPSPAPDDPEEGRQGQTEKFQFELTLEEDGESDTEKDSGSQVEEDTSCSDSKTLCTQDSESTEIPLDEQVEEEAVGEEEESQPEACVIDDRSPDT
# Experimental: The PDE construct was transfected into Cos 7 cells in round culture dish (100×20 mm). The cells were then harvested and homogenized with lysis buffer. The crude homogenate was spun at maximum speed in a microfuge. The supernatant fluid was saved as an extract. […] The PDE construct and Cos 7 cells were a kind gift from Dr. Conti at the Stanford University School of Medicine.
# as §1
# [2] = Human liver microsome stability assay; type: in vitro ADME; conditions: for half-life at 40 μM: human, liver microsomes, pH 7.4, Table 16, read-out: HLM t1/2
# Experimental: as §2
# rodent PDE4 = assay: Inhibition of rodent PDE4 (rolipram binding sites); conditions: Table 4
# Experimental: IC50 values for inhibitor interaction with this site were calculated by nonlinear regression analysis of competition curves for unlabeled PDE4 inhibitors; Ki values were determined according to the method of Cheng and Prusoff (1973). […] Competition curves for the PDE4 inhibitors were subjected to nonlinear regression analysis and IC50 values with which the inhibitors bind to each of the binding sites was determined; K1 values were determined according to the method of Cheng and Prusoff (1973).
# human PDE4A1 = target: T3, human PDE4A1 (Homo sapiens, UniProt P27815); assay: Inhibition of cAMP hydrolysis by recombinant human PDE4A1; type: biochemical
# T3 construct: made in house
# T3 sequence (P27815 1-647 isoform P27815-4): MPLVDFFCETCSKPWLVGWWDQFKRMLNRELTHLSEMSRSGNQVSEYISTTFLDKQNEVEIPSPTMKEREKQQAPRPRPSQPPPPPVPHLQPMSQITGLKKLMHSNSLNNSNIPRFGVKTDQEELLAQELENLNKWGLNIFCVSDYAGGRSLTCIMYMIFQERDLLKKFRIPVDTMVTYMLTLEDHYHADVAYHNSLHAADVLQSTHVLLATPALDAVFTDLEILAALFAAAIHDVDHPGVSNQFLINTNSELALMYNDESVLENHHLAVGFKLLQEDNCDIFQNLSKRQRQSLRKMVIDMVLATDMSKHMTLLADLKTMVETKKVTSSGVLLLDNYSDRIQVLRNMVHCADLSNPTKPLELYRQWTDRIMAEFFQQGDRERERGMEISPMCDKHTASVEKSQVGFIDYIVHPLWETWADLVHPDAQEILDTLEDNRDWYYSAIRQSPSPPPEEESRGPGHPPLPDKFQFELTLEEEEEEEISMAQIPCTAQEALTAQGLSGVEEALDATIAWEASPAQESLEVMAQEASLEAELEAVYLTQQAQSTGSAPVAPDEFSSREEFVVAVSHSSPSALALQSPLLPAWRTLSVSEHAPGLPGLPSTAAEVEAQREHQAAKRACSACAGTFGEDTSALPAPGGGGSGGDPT
# Experimental: as §1
# ICR mice = assay: Forced-swim test in ICR mice; type: in vivo, mouse
# Experimental: Forty male ICR mice, weighed 26.2±0.3 g, were housed in a temperature-controlled room (22-23° C.) and maintained on a 12-hour on 12-hour off light cycle (lights on at 6:00 AM). Water and food were freely available in the home cages. […] Saline containing the same percentage of DMSO was used as vehicle. The lower doses were tested followed by the larger doses 1 week later, when the mice were again randomly divided into four groups as described above. The forced-swim test (FST) was carried out as described previously. Mice were given a swimming pretest session, once a day for two successive days. Twenty-four hours after the last session, mice were injected vehicle or the lower dose of each test compound by the i.p. route 30 min prior to the FST. One week later, administration of the larger dose of each of the test compounds was repeated. During the pretest and test sessions, each mouse was placed for 6 min in a plastic cylinder (45 cm high×20 cm diameter), which was filled to a depth of 28 cm with water (23±1° C.). The duration of immobility, which was defined as floating in an upright position without additional activity other than that necessary for the animal to keep its head above water, was recorded.
# Swiss-Webster mice = assay: animal or person; type: in vivo, mouse
# Experimental: A time course/dose response study of cocaine-induced locomotor stimulation was conducted beginning Feb. 21, 2000, according to a locomotor activity studies time course protocol. […]. A panel of infrared beams (16 beams) and corresponding photodetectors were located in the horizontal direction along the sides of each activity chamber. A 7.5-W incandescent light above each chamber provided dim illumination. Fans provided an 80-dB ambient noise level within the chamber. […]. In all studies, horizontal activity (interruption of photocell beams) was measured for 8 hours within 10-min periods, beginning at 0800 hrs (2 hours after lights on). Testing was conducted with one mouse per activity chamber.
# . Behavioral observations were recorded on each mouse at 30, 120 and 480 minutes following 100 mg/kg compound 31,646.
# DAT, SERT or NET = assay: Binding and reuptake inhibition in HEK cells containing DAT, SERT or NET (overall statement); type: cell-based, human; conditions: for transporter inhibition potency: DAT, SERT, NET binding and reuptake
# Experimental: The data cannot be directly compared with Table 1 because the compounds of Table 3 were mixtures of diastereomers and isomers at all centers of chirality.
# Transporter Binding Assays. […] Cells were scraped from plates and centrifuged for […] at 30,000×g and the pellet was re-suspended in 0.32 M sucrose with a Polytron at a setting of 1 for 5 sec. […] Membranes were pre-incubated with test compounds for […] before addition of [^125I]RTI-55. […] The incubations were done in the dark and terminated by filtration onto a Whatman GF/C filters using a 96-well Tomtech cell harvester (Tomtech, Orange, Conn.). Scintillation fluid was added to each filter spot and radioactivity remaining on the filter was determined using a Wallace β-plate reader (Wallace Labs, Cranbury, N.J.).
# Balb/c mice = assay: Forced-swim test in Balb/c mice; type: in vivo, mouse; conditions: for duration of immobility, forced-swim test, acute: i.p. 30 min prior, fluoxetine 20 mg/kg, test compounds 10 mg/kg
# Experimental: The study was conducted according to a standard operation procedure and in accordance with all Federal regulations. Water and food were freely available in the home cages. […] Mice were given a swimming pretest session, once a day for two successive days. […] During the pretest and test sessions, each mouse was placed for […] in a plastic cylinder (45 cm high×20 cm diameter), which was filled to a depth of 28 cm with water (23±1° C.). The duration of immobility, which was defined as floating in an upright position without additional activity other than that necessary for the animal to keep its head above water, was recorded. For the subchronic administration tests, the animals were separated as above and vehicle or chemicals were given by i.p. administration 23, 5 and 1 hr before the FST. The subchronic experiments were done similar to the study described above except for the pretest training that was not carried out.
# Mice in the first session were treated with vehicle or the drugs acutely, whereas mice in the second sessions were treated subchronically, i.e., vehicle or drugs were given i.p. 23, 5, and 1 hr before the FST. The experiment was performed similar to Experiment 1 except for the pretest training, which was not carried out in the second session.
# [3] = Example 29, read-out: Ki, human PDE4D3
# [4] = Example 29, read-out: Ki, human PDE4A1
# [5] = Table 14, read-out: Human PDE4A1 Ki
molecule,measurement,setting,value
COc1ccc(F)cc1CCC1CCC(CCNCCCCCN2N=C(c3ccc(OC)c(OC)c3)C3CC=CC[C@H]3C2=O)O1 (stereo partly drawn) [Compound 115],improvement in memory (escape latency),mice,30%
COc1ccc(F)c(CCCC2CCC(CCNCCCCCN3N=C(c4ccc(OC)c(OC)c4)C4CC=CC[C@H]4C3=O)O2)c1 (stereo partly drawn) [Compound 22],Ki,human PDE4B3,0.5 µM
same,metabolism in mouse liver microsomes,"[1]; NADPH, up to 60 min",No detectable metabolic instability
same,half-life at 40 μM,"[1]; mouse, liver microsomes, pH 7.4, Table 16, read-out: MLM t1/2",> 1 h
same,Ki,human PDE4D3; [3],0.0012 µM
same,metabolism in human liver microsomes,"[2]; NADPH, up to 60 min",No detectable metabolic instability
same,half-life at 40 μM,[2],> 1 h
same,pIC50,rodent PDE4,6.3
same,Ki,human PDE4A1; [4],> 1 µM
same,Ki,human PDE4A1; [5],< 1 µM
"COc1ccc(C2CNC(=O)C2)cc1OC1CCCC1 (stereo not drawn) [Rolipram, reference compound]","forced-swim test behavior, acute",ICR mice; 0.5 mg/kg,did not alter FST behavior
"COC(=O)[C@H]1[C@@H](OC(=O)c2ccccc2)C[C@@H]2CC[C@H]1N2C [Cocaine, reference compound]",onset of stimulant effects after injection,Swiss-Webster mice; 10 and 20 mg/kg,≤ 10 min
same,ED50,"Swiss-Webster mice; Mus musculus, IP, 0-30 min, read-out: ED50 (dose producing 1/2 maximal stimulant activity)",5.8 mg/kg
same,dose at maximum horizontal activity,Swiss-Webster mice; estimated from fitted curve,23.4 mg/kg
same,maximum horizontal activity,"Swiss-Webster mice; estimated from fitted curve, 0-30 min",5520 counts/10 min
"NCCC1CCC(CCc2ccccc2)O1 (stereo not drawn) [Compound 54, 2-(Aminoethyl)-5-(phenethyl)tetrahydrofuran]",other behavioral observations,"Swiss-Webster mice; 100 mg/kg, 30, 120 and 480 minutes",No unusual effects were observed
same,onset of depressant effects after injection,Swiss-Webster mice; 30 and 100 mg/kg,≤ 10 min
same,ID50 (dose producing 1/2 maximal depressant activity),"Swiss-Webster mice; IP, 0-30 min after injection",39.8 mg/kg
same,CNS stimulation,"Swiss-Webster mice; mouse, in vivo",did not cause CNS stimulation
"2-(5-Bromo-pentyl)-4-(3,4-dimethoxy-phenyl-4a,5,8,8a-tetrahydro-2H-phthalazin-1-one [Compound 20]",transporter inhibition potency,"DAT, SERT or NET",no transporter inhibition potency
"COc1ccc(C2=NNC(=O)[C@@H]3CC=CC[C@H]23)cc1OC (racemic) [Compound 19, 4-(3,4-Dimethoxy-phenyl)-4a,5,8,8a-tetrahydro-2H-phthalazin-1-one, reference compound]",Ki,human PDE4B3,0.25 µM
same,effect on RTI-55 binding or reuptake at any transporter,"DAT, SERT or NET; hDAT, hSERT, hNET",essentially no measurable effect
same,"half life, mouse liver microsomes",[1]; NADPH,3.52 h
same,MLM t1/2,[1]; Table 16,3.522 h
same,improvement in memory (escape latency),mice,30%
same,PDE4A1/PDE4D3 inhibitory selectivity ratio,human PDE4D3,< 159 fold
same,PDE4B3/PDE4D3 inhibitory selectivity ratio,human PDE4D3,40 fold
same,Ki,human PDE4D3; [3],0.0063 µM
same,half-life at 40 μM,[2],> 1 h
same,Ki,human PDE4A1; [4],> 1 µM
same,Ki,human PDE4A1; [5],< 1 µM
same,"immobility, forced-swim test, acute, higher dose","ICR mice; 3 mg/kg i.p., vs vehicle, P<0.05",significantly reduced immobility
same,"duration of immobility, forced-swim test, acute",ICR mice; 0.3 and 3 mg/kg i.p.,decreased duration of immobility in a dose-dependent manner
"COc1ccc(F)cc1CCC1CCC(CCN)O1 (stereo not drawn) [Compound 14, 2-Aminoethyl-5-(2′-methoxy-5′-fluorophenethyl)tetrahydrofuran]","immobility, forced-swim test, subchronic","Balb/c mice; i.p. 23, 5 and 1 hr prior, fluoxetine 10 mg/kg, 18k/l or 14 10 mg/kg, 21 1 mg/kg",did not change immobility
same,"duration of immobility, forced-swim test, acute",Balb/c mice,did not markedly alter the duration of immobility
same,"half life, mouse liver microsomes",[1]; NADPH,0.933 h
same,MLM t1/2,[1]; Table 16,0.933 h
same,"immobility, forced-swim test, acute",ICR mice; 10 and 30 mg/kg i.p.,"tended to decrease immobility, but it was not statistically significant"
"COc1ccc(C2=NNC(=O)C3CC=CCC23)cc1OC (racemic) [Compound 19, 4-(3,4-Dimethoxy-phenyl)-4a,5,8,8a-tetrahydro-2H-phthalazin-1-one, reference compound]",transporter inhibition potency,"DAT, SERT or NET",no transporter inhibition potency
same,Ki,"human PDE4D3; Table 5, recombinant human PDE 4D3, read-out: Ki",0.0063 µM
same,pIC50,rodent PDE4,6.7
"COc1ccc(F)cc1CCCC1CCC(CCN)O1 (stereo not drawn) [Compound 15, 2-Aminoethyl-5-(3′-(2″-methoxy-5″-fluorophenyl)-1′-propyl)tetrahydrofuran]","duration of immobility, forced-swim test, acute",Balb/c mice,did not markedly alter the duration of immobility
